Measured values: patent publication US20180042227A1, “SYNERGISTIC ANTIMICROBIAL COMPOSITION” (Dow Global Technologies LLC, priority 2015, published 2018)

What was measured:
Type in all cases: cell-based
[1] = test system: Pseudomonas aeruginosa DSM # 939; assay: Minimum Inhibitory Concentration (MIC) test and synergy index, Pseudomonas aeruginosa; details: alone or in the mixture, TSB pH 7.3, 30° C. for 2 days
Experimental: (§1) The synergism of the biocides combination of the present invention was determined using the method described by Kull, F. C., et. al in Applied Microbiology 9:538-541 (1961). […] The Minimum Inhibitory Test (MIC) is designed to evaluate the lowest concentration of a biocide, biocide blend or biocide combination to prevent bacteria, yeast, or fungi from growing in a defined broth. After incubation, the samples are rated based on visually detectable turbidity. This test was carried out with a dilution factor of 1.5 for the biocides. • 1. Test samples were prepared in equal volumes in transparent containers. The biocide dilutions were done in tryptic soy broth (TSB) at pH of 7.3 for the bacteria and in malt extract broth (MEB) at pH 5.4 for the fungi strain. • 16 samples per biocide product and species to be tested were prepared in duplicates by serial dilution with a dilution factor of 1.5. • Per strain of micro-organism two samples not containing any biocide was added as a control. • 2. […] After incubation for 1 day at 30° C. the strains were harvested with buffer pH 7.3. • The concentration of cells was assessed by using a standard viable count technique. • For the inoculum, dilutions were made in buffer pH 7.3. • Yeast culture: [table] • 4. Reading was done visually by a growth/no growth rating. […]

[2] = test system: Staphylococcus Aureus DSM # 799; assay: Minimum Inhibitory Concentration (MIC) test and synergy index, Staphylococcus aureus; details: alone or in the mixture, TSB pH 7.3, 30° C. for 2 days
Experimental: as §1

[3] = test system: Candida Albicans DSM # 1386; assay: Minimum Inhibitory Concentration (MIC) test and synergy index, Candida albicans; details: alone or in the mixture, MEB pH 5.4, 28° C. for 2 days
Experimental: The synergism of the biocides combination of the present invention was determined using the method described by Kull, F. C., et. al in Applied Microbiology 9:538-541 (1961). […] The Minimum Inhibitory Test (MIC) is designed to evaluate the lowest concentration of a biocide, biocide blend or biocide combination to prevent bacteria, yeast, or fungi from growing in a defined broth. After incubation, the samples are rated based on visually detectable turbidity. This test was carried out with a dilution factor of 1.5 for the biocides. • 1. Test samples were prepared in equal volumes in transparent containers. The biocide dilutions were done in tryptic soy broth (TSB) at pH of 7.3 for the bacteria and in malt extract broth (MEB) at pH 5.4 for the fungi strain. • 16 samples per biocide product and species to be tested were prepared in duplicates by serial dilution with a dilution factor of 1.5. • Per strain of micro-organism two samples not containing any biocide was added as a control. • 2. […] Reading was done visually by a growth/no growth rating. […]

| SMILES | Minimum Concentration (active ppm) to Inhibit Growth, DTBMA ([1]; DTBMA concentration) [active ppm] | Minimum Concentration (active ppm) to Inhibit Growth, DTBMA ([2]; DTBMA concentration) [active ppm] | Minimum Concentration (active ppm) to Inhibit Growth, DTBMA ([3]; DTBMA concentration) [active ppm] | Minimum Concentration (active ppm) to Inhibit Growth, Diamine ([1]; Diamine concentration) [active ppm] | Minimum Concentration (active ppm) to Inhibit Growth, Diamine ([2]; Diamine concentration) [active ppm] | Minimum Concentration (active ppm) to Inhibit Growth, Diamine ([3]; Diamine concentration) [active ppm] |
| --- | --- | --- | --- | --- | --- | --- |
| CNC(=O)c1ccccc1SSc1ccccc1C(=O)NC [DTBMA alone, dithio-2,2′-bis-benzmethylamide] | 222 | 20 | 148 | – | – | – |
| CCCCCCCCCCCCN(CCCN)CCCN [Diamine alone, N-(3-Aminopropyl)-N-dodecylpropane-1,3-diamine] | – | – | – | 148 | 44 | 148 |
